ChEMBL document CHEMBL1201862, “PubChem BioAssay data set” (2004)
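The compound was tested at five concentrations on cells cultured in 96-well plates, with a 48-hour exposure period. Here, GI50 denotes the concentration required for 50% inhibition of growth.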 The source made the active and inactive calls. Cut-off read from the data, not from the text of the source: active = GI50 up to about 1.1 µM and inactive = higher.

Tests used:
Test in all cases: NCI-60 cell line screen, 48 h
COLO 205 = test system: COLO 205
DLD-1 = test system: DLD-1
DMS-273 = test system: DMS-273
EKVX = test system: EKVX
HCC 2998 = test system: HCC 2998
HCT-15 = test system: HCT-15
HT-29 = test system: HT-29
Hs-578T = test system: Hs-578T
KM-20L2 = test system: KM-20L2
MDA-MB-231 = test system: MDA-MB-231
MDA-MB-435 = test system: MDA-MB-435
Malme-3M = test system: Malme-3M
NCI-H522 = test system: NCI-H522
NCI/ADR-RES = test system: NCI/ADR-RES
OVCAR-3 = test system: OVCAR-3
OVCAR-8 = test system: OVCAR-8
SK-MEL-28 = test system: SK-MEL-28
SNB-19 = test system: SNB-19
SW-620 = test system: SW-620
UACC-257 = test system: UACC-257

CCCCCCCCCCCC(=O)OC[C@H](C[As](=O)(O)O)OC(=O)CCCCCCCCCCC
GI50 (COLO 205): 19.4 µM (inactive)
GI50 (DLD-1): 13.2 µM (inactive)
GI50 (DMS-273): 3.98 µM (inactive)
GI50 (EKVX): 10.2 µM (inactive)
GI50 (HCC 2998): 8.13 µM (inactive)
GI50 (HCT-15): 8.26 µM
GI50 (HT-29): 8.02 µM (inactive)
GI50 (Hs-578T): 2.78 µM (inactive)
GI50 (KM-20L2): 6.04 µM (inactive)
GI50 (MDA-MB-231): 3.81 µM (inactive)
GI50 (MDA-MB-435): 2.64 µM (inactive)
GI50 (Malme-3M): 2.3 µM (inactive)
GI50 (NCI-H522): 2.25 µM (inactive)
GI50 (NCI/ADR-RES): 14.1 µM (inactive)
GI50 (OVCAR-3): 5.92 µM (inactive)
GI50 (OVCAR-8): 13 µM (inactive)
GI50 (SK-MEL-28): 3.94 µM (inactive)
GI50 (SNB-19): 5.93 µM (inactive)
GI50 (SW-620): 14.4 µM (inactive)
GI50 (UACC-257): 11 µM (inactive)

CC(C)CCCCCCCCCCCCC(=O)NCC(=O)NC1C(C)OC(Nc2ncnc3c2ncn3C)C(O)C1O (configuration not stated)
GI50 (COLO 205): 3.81 µM (inactive)
GI50 (DLD-1): 12.1 µM (inactive)
GI50 (DMS-273): 1.81 µM (inactive)
GI50 (EKVX): > 100 µM (inactive)
GI50 (HCC 2998): 1.28 µM (inactive)
GI50 (HCT-15): > 100 µM
GI50 (HT-29): 4.2 µM (inactive)
GI50 (KM-20L2): 4.02 µM (inactive)
GI50 (Malme-3M): 2.32 µM (inactive)
GI50 (NCI-H522): 6.7 µM (inactive)
GI50 (NCI/ADR-RES): > 100 µM (inactive)
GI50 (OVCAR-3): 3.52 µM (inactive)
GI50 (OVCAR-8): 4.27 µM (inactive)
GI50 (SK-MEL-28): > 100 µM (inactive)
GI50 (SNB-19): 2.88 µM (inactive)
GI50 (SW-620): 5.37 µM (inactive)
GI50 (UACC-257): 19.4 µM (inactive)

CC(C)=CC(=O)OC1C2C(C)C(=O)OC2C(O)C(C)C2C=CC(=O)C21C (configuration not stated)
GI50 (COLO 205): 1.87 µM (inactive)
GI50 (DLD-1): 1.14 µM (inactive)
GI50 (DMS-273): 4.25 µM (inactive)
GI50 (EKVX): 2.92 µM (inactive)
GI50 (HCC 2998): 5.47 µM (inactive)
GI50 (HCT-15): 2 µM
GI50 (HT-29): 3.21 µM (inactive)
GI50 (KM-20L2): 3.42 µM (inactive)
GI50 (Malme-3M): 3.58 µM (inactive)
GI50 (NCI-H522): 0.569 µM (active)
GI50 (NCI/ADR-RES): 4.3 µM (inactive)
GI50 (OVCAR-3): 2.75 µM (inactive)
GI50 (OVCAR-8): 1.79 µM (inactive)
GI50 (SK-MEL-28): 1.34 µM (inactive)
GI50 (SNB-19): 7.38 µM (inactive)
GI50 (SW-620): 1.68 µM (inactive)
GI50 (UACC-257): 3.94 µM (inactive)

CCC1(c2ccc(N)cc2)CCC(=O)NC1=O (configuration not stated) [AMINOGLUTETHIMIDE]
GI50 (COLO 205): 1470 µM (inactive)
GI50 (DLD-1): 3230 µM (inactive)
GI50 (DMS-273): 2560 µM (inactive)
GI50 (EKVX): 3880 µM (inactive)
GI50 (HCC 2998): 3680 µM (inactive)
GI50 (HCT-15): 2380 µM
GI50 (HT-29): 2960 µM (inactive)
GI50 (Hs-578T): 1520 µM (inactive)
GI50 (KM-20L2): 3940 µM (inactive)
GI50 (MDA-MB-231): 2610 µM (inactive)
GI50 (MDA-MB-435): > 2740 µM (inactive)
GI50 (Malme-3M): 2960 µM (inactive)
GI50 (NCI-H522): 2640 µM (inactive)
GI50 (NCI/ADR-RES): 1680 µM (inactive)
GI50 (OVCAR-3): 1810 µM (inactive)
GI50 (OVCAR-8): 3270 µM (inactive)
GI50 (SK-MEL-28): 3610 µM (inactive)
GI50 (SNB-19): 3350 µM (inactive)
GI50 (SW-620): 3520 µM (inactive)
GI50 (UACC-257): 2650 µM (inactive)

CN1OC(=O)N(C)C1c1ccccc1 (configuration not stated)
GI50 (COLO 205): > 100 µM (inactive)
GI50 (DLD-1): > 100 µM (inactive)
GI50 (DMS-273): > 100 µM (inactive)
GI50 (EKVX): > 100 µM (inactive)
GI50 (HCC 2998): > 100 µM (inactive)
GI50 (HCT-15): > 100 µM
GI50 (HT-29): > 100 µM (inactive)
GI50 (KM-20L2): > 100 µM (inactive)
GI50 (Malme-3M): > 100 µM (inactive)
GI50 (NCI-H522): > 100 µM (inactive)
GI50 (NCI/ADR-RES): > 100 µM (inactive)
GI50 (OVCAR-3): > 100 µM (inactive)
GI50 (OVCAR-8): > 100 µM (inactive)
GI50 (SK-MEL-28): > 100 µM (inactive)
GI50 (SNB-19): > 100 µM (inactive)
GI50 (SW-620): > 100 µM (inactive)
GI50 (UACC-257): > 100 µM (inactive)

CNC(=O)OCc1nc(SC)n(C)c1COC(=O)NC
GI50 (COLO 205): 146 µM (inactive)
GI50 (DLD-1): 183 µM (inactive)
GI50 (DMS-273): 86.5 µM (inactive)
GI50 (EKVX): 230 µM (inactive)
GI50 (HCC 2998): 122 µM (inactive)
GI50 (HCT-15): 171 µM
GI50 (HT-29): 205 µM (inactive)
GI50 (Hs-578T): 195 µM (inactive)
GI50 (KM-20L2): 177 µM (inactive)
GI50 (MDA-MB-231): 187 µM (inactive)
GI50 (MDA-MB-435): 161 µM (inactive)
GI50 (Malme-3M): 113 µM (inactive)
GI50 (NCI-H522): 74.1 µM (inactive)
GI50 (NCI/ADR-RES): 204 µM (inactive)
GI50 (OVCAR-3): 187 µM (inactive)
GI50 (OVCAR-8): 182 µM (inactive)
GI50 (SK-MEL-28): 188 µM (inactive)
GI50 (SNB-19): 233 µM (inactive)
GI50 (SW-620): 172 µM (inactive)
GI50 (UACC-257): 103 µM (inactive)

CC1(c2ccc(Cl)cc2)C2C(=O)NC(=O)C1C(=O)NC2=O (configuration not stated)
GI50 (COLO 205): > 100 µM (inactive)
GI50 (DLD-1): > 100 µM (inactive)
GI50 (DMS-273): > 100 µM (inactive)
GI50 (EKVX): > 100 µM (inactive)
GI50 (HCC 2998): > 100 µM (inactive)
GI50 (HCT-15): > 100 µM
GI50 (HT-29): > 100 µM (inactive)
GI50 (KM-20L2): 56.5 µM (inactive)
GI50 (Malme-3M): > 100 µM (inactive)
GI50 (NCI-H522): > 100 µM (inactive)
GI50 (OVCAR-3): > 100 µM (inactive)
GI50 (OVCAR-8): > 100 µM (inactive)
GI50 (SK-MEL-28): > 100 µM (inactive)
GI50 (SNB-19): > 100 µM (inactive)
GI50 (SW-620): > 100 µM (inactive)
GI50 (UACC-257): > 100 µM (inactive)
